One may read the MIC80 as an inhibitory concentration at the 80% level, which refers to growth in some studies and to a panel of isolates in others.

Converted amounts (≈) assume the structure as drawn.

These results are taken from ChEMBL document CHEMBL3817834, “Scaffold morphing leading to evolution of 2,4-diaminoquinolines and aminopyrazolopyrimidines as inhibitors of the ATP synthesis pathway” (Medchemcomm, 2016).

Common to all, as to assay type: functional
For assay [1], the system named is Mycobacterium tuberculosis. The assay can be described thus: Antimycobacterial activity against bedaquiline resistant Mycobacterium tuberculosis harboring A63P mutant by turbidometric method.
Assay [2] relates to Mycobacterium tuberculosis. The assay can be described thus: Antimycobacterial activity against rifampicin resistant Mycobacterium tuberculosis isolate 19000 by turbidometric method.
Assay [3] deals with Mycobacterium tuberculosis. The assay can be described thus: Antimycobacterial activity against ofloxacin resistant Mycobacterium tuberculosis isolate 12119 by turbidometric method.
The subject of assay [4] is Mycobacterium tuberculosis. The assay can be described thus: Antimycobacterial activity against ethambutol resistant Mycobacterium tuberculosis isolate 17003 by turbidometric method.
In assay [5] the test system is Mycobacterium tuberculosis. Kind of assay: Antimycobacterial activity against bedaquiline resistant Mycobacterium tuberculosis harboring I66M mutant by turbidometric method.
Assay [6] has as its system Mycobacterium tuberculosis. The assay can be described thus: Antimycobacterial activity against isoniazid resistant Mycobacterium tuberculosis isolate 35822 by turbidometric method.
The test system of assay [7] is Mycobacterium tuberculosis. The assay can be described thus: Antimycobacterial activity against streptomycin resistant Mycobacterium tuberculosis isolate 35820 by turbidometric method.

As to `CN[C@@H]1[C@H](O[C@H]2[C@H](O[C@H]3[C@H](O)[C@@H](O)[C@H](N=C(N)N)[C@@H](O)[C@@H]3N=C(N)N)O[C@@H](C)[C@]2(O)C=O)O[C@@H](CO)[C@H](O)[C@H]1O` [STREPTOMYCIN], the “MIC=>80” value in assay [1] and in assay [5] was 0.3 µM (≈ 0.174 µg/mL) throughout. For the same compound, the MIC80 was 0.3 µM (≈ 0.174 µg/mL) in assay [2]; 0.3 µM (≈ 0.174 µg/mL) in assay [3]; 0.3 µM (≈ 0.174 µg/mL) in assay [4]; 0.3 µM (≈ 0.174 µg/mL) in assay [6]; more than 11 µM in assay [7].

In the case of `COc1nc2ccc(Br)cc2cc1[C@@H](c1ccccc1)[C@@](O)(CCN(C)C)c1cccc2ccccc12` [BEDAQUILINE], the “MIC=>80” value was more than 10 µM in assay [1] and 10 µM (≈ 5.56 µg/mL) in assay [5]. The MIC80 in assay [2], in assay [3], in assay [4], in assay [6] and in assay [7] was less than 2 µM each time.

In the case of `NNC(=O)c1ccncc1` [ISONIAZID], the “MIC=>80” value in assay [1] and in assay [5] was 0.2 µM (≈ 0.0274 µg/mL) throughout. Also, the MIC80 in assay [2] is 0.2 µM (≈ 0.0274 µg/mL); in assay [3] it was 0.2 µM (≈ 0.0274 µg/mL); in assay [4], 0.2 µM (≈ 0.0274 µg/mL); in assay [6] it was more than 15 µM; in assay [7] it was 0.2 µM (≈ 0.0274 µg/mL).

With `COc1cc2nc(N3CCC(c4ccccc4Cl)C3)cc(Nc3cnc(OCCN(C)C)c(F)c3)c2cc1OC` (stereo not given), the “MIC=>80” value is 3.1 µM (≈ 1.75 µg/mL) in assay [1] and 6.3 µM (≈ 3.57 µg/mL) in assay [5]. Moreover, the MIC80 amounted to 3.1 µM (≈ 1.75 µg/mL) in assay [2]; 12.5 µM (≈ 7.08 µg/mL) in assay [3]; 6.3 µM (≈ 3.57 µg/mL) in assay [4]; 6.3 µM (≈ 3.57 µg/mL) in assay [6]; 12.5 µM (≈ 7.08 µg/mL) in assay [7].

`CN(C)CCOc1ncc(Nc2cc(-c3ccccc3)nc3cc(-c4ccc(F)cc4)[nH]c23)cc1F`: the “MIC=>80” value in assay [1] and in assay [5] was 3.1 µM (≈ 1.51 µg/mL) throughout. In addition, the MIC80 in assay [2] is 3.1 µM (≈ 1.51 µg/mL); in assay [3], 25 µM (≈ 12.1 µg/mL); in assay [4], 6.3 µM (≈ 3.06 µg/mL); in assay [6], 3.1 µM (≈ 1.51 µg/mL); in assay [7], 25 µM (≈ 12.1 µg/mL).

Consider `CO[C@H]1/C=C/O[C@@]2(C)Oc3c(C)c(O)c4c(O)c(c(/C=N/N5CCN(C)CC5)c(O)c4c3C2=O)NC(=O)/C(C)=C\C=C\[C@H](C)[C@H](O)[C@@H](C)[C@@H](O)[C@@H](C)[C@H](OC(C)=O)[C@@H]1C` [RIFAMPIN], for which the “MIC=>80” value in assay [1] and in assay [5] was 0.04 µM (≈ 0.0329 µg/mL) throughout. Further, the MIC80 in assay [2] is more than 1.2 µM; in assay [3], 0.04 µM (≈ 0.0329 µg/mL); in assay [4] it was 0.04 µM (≈ 0.0329 µg/mL); in assay [6], 0.04 µM (≈ 0.0329 µg/mL); in assay [7], 0.04 µM (≈ 0.0329 µg/mL).

Consider `CN(C)CCOc1ncc(Nc2cc(N3CCC(c4ccccc4Cl)C3)nc3cc(F)c(F)cc23)cc1F` (stereo not given), for which the “MIC=>80” value in assay [1] and in assay [5] was 3.1 µM (≈ 1.68 µg/mL) each time. The MIC80 amounted to 3.1 µM (≈ 1.68 µg/mL) in assay [2]; 25 µM (≈ 13.6 µg/mL) in assay [3]; 6.3 µM (≈ 3.41 µg/mL) in assay [4]; 3.1 µM (≈ 1.68 µg/mL) in assay [6]; 25 µM (≈ 13.6 µg/mL) in assay [7].

For the compound `CC1COc2c(N3CCN(C)CC3)c(F)cc3c(=O)c(C(=O)O)cn1c23` (stereo not given) [OFLOXACIN], the “MIC=>80” value in assay [1] and in assay [5] was 0.7 µM (≈ 0.253 µg/mL) each time. For the same compound, the MIC80 was 0.7 µM (≈ 0.253 µg/mL) in assay [2]; more than 5.6 µM in assay [3]; 0.3 µM (≈ 0.108 µg/mL) in assay [4]; 0.7 µM (≈ 0.253 µg/mL) in assay [6]; 0.7 µM (≈ 0.253 µg/mL) in assay [7].

On to `CN(C)CCOc1ncc(Nc2cc(-c3ccccc3)nc3cc(-c4ccc(F)cc4)nn23)cc1F`, for which the figures for the “MIC=>80” value in assay [1] and in assay [5] were 12.5 µM (≈ 6.08 µg/mL) and 6.3 µM (≈ 3.07 µg/mL), respectively. Moreover, the MIC80 in assay [2] is 6.3 µM (≈ 3.07 µg/mL); in assay [3], 12.5 µM (≈ 6.08 µg/mL); in assay [4] it was 6.3 µM (≈ 3.07 µg/mL); in assay [6], 12.5 µM (≈ 6.08 µg/mL); in assay [7], 25 µM (≈ 12.2 µg/mL).

With `CC[C@@H](CO)NCCN[C@@H](CC)CO` [ETHAMBUTOL], the “MIC=>80” value in assay [1] and in assay [5] was 9.8 µM (≈ 2 µg/mL) throughout. For the same compound, the MIC80 in assay [2] is 9.8 µM (≈ 2 µg/mL); in assay [3], 4.9 µM (≈ 1 µg/mL); in assay [4], more than 20 µM; in assay [6] it was 9.8 µM (≈ 2 µg/mL); in assay [7], 9.8 µM (≈ 2 µg/mL).
